GI50 and TGI data for 8 compounds are collected here from PubChem BioAssay (NCI).

Some test systems named below: HOP-62 NSCLC; HT29 colon; MALME-3M melanoma; MCF7 breast; MOLT-4 leukemia; OVCAR-3 ovarian; RPMI-8226 leukemia; SF-268 CNS; SN12C renal; SR leukemia.
Holding throughout (experiment): NCI-60 cell line screen, 48 h

Values joined by “and” are separate entries in the source; they are usually repeats but may differ in a detail not shown here. Identical values can stand only once.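 Test compounds were applied to cells in 96-well plates for 48 hours at 5 doses. Abbreviation: GI50, concentration required for 50% inhibition of growth. TGI is the concentration that stops growth completely.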

On to `COc1cccc(/C=C2\COc3ccc(O)c(O)c3C2=O)c1OC`, for which the GI50 was 8.79 µM in the assay with HOP-62 NSCLC; 3.33 µM in the assay on HT29 colon; 2.09 µM in the assay with MALME-3M melanoma; 1.76 µM with MCF7 breast; 1.83 µM in the assay on MOLT-4 leukemia; 1.16 µM with OVCAR-3 ovarian. Further, the GI50 in the assay on RPMI-8226 leukemia is 0.547 µM; in the assay on SF-268 CNS, 2.12 µM; in the assay with SN12C renal, 2.77 µM; in the assay on SR leukemia it was 1.51 µM. Moreover, the TGI with HOP-62 NSCLC is 22.8 µM; in the assay with HT29 colon, 10.1 µM; in the assay on MALME-3M melanoma, 6.11 µM; in the assay on MCF7 breast it was 14.9 µM; with MOLT-4 leukemia, over 100 µM; with OVCAR-3 ovarian, 2.85 µM. The TGI was 8.7 µM in the assay on RPMI-8226 leukemia, 10.3 µM in the assay with SF-268 CNS, 12.9 µM with SN12C renal and over 100 µM in the assay on SR leukemia.
As to `O=C(Nc1ccc(Br)cc1)c1cc(Br)ccc1O`, the GI50 was 0.791 µM and 1.73 µM in the assay with HOP-62 NSCLC; 3.11 µM and 3.38 µM with HT29 colon; 0.284 µM and 0.48 µM with MALME-3M melanoma; 0.412 µM and 1.29 µM with MCF7 breast; 0.683 µM and 0.799 µM in the assay on MOLT-4 leukemia; 0.314 µM and 0.535 µM in the assay on OVCAR-3 ovarian. In addition, the GI50 with RPMI-8226 leukemia is 0.483 µM and 0.244 µM; in the assay with SF-268 CNS, 0.489 µM and 2.05 µM; in the assay with SN12C renal, 0.252 µM and 1.42 µM; with SR leukemia, 0.291 µM and 0.554 µM. Moreover, the TGI in the assay on HOP-62 NSCLC was 8.75 µM and 5.31 µM; in the assay on HT29 colon it was 16 µM and 39 µM; in the assay with MALME-3M melanoma, 1.57 µM and 4.2 µM; in the assay with MCF7 breast it was 3.37 µM and 7.8 µM; in the assay with MOLT-4 leukemia, 3.2 µM and 3.89 µM; in the assay on OVCAR-3 ovarian it was 7.81 µM and 7.14 µM. The TGI in the assay with RPMI-8226 leukemia is 0.758 µM; in the assay on SF-268 CNS it was 26.6 µM and 13.4 µM; in the assay on SN12C renal it was 5.14 µM and 8.36 µM; in the assay with SR leukemia, 3.23 µM.
For `O=C1/C(=C/c2ccccc2)CN(C(=O)/C=C/c2ccccc2)C/C1=C\c1ccccc1`, the TGI was determined as 48.9 µM in the assay on HOP-62 NSCLC; 11.8 µM with HT29 colon; 34.1 µM in the assay with MALME-3M melanoma; 3.83 µM in the assay with MCF7 breast; 35.4 µM in the assay on MOLT-4 leukemia; 24.7 µM in the assay with OVCAR-3 ovarian. The TGI in the assay with RPMI-8226 leukemia was 10.8 µM; in the assay with SF-268 CNS it was 38.7 µM; with SN12C renal, 16 µM; with SR leukemia it was 4.64 µM.
Turning to `Nc1ncnc2occ(-c3ccc(NC(=O)Nc4cccc(C(F)(F)F)c4)cc3)c12`, the GI50 in the assay with HOP-62 NSCLC is 5.09 µM; with HT29 colon, 3.12 µM; in the assay with MALME-3M melanoma, 5.74 µM; in the assay with MCF7 breast it was 2.34 µM; with MOLT-4 leukemia it was 3.54 µM; in the assay with OVCAR-3 ovarian, 4.79 µM. In addition, the GI50 in the assay with RPMI-8226 leukemia was 4.86 µM; with SF-268 CNS, 3.54 µM; in the assay on SN12C renal, 2.01 µM; in the assay with SR leukemia, 0.957 µM. For the same compound, the TGI was 10 µM in the assay on HOP-62 NSCLC; 10.6 µM in the assay on HT29 colon; 13.3 µM in the assay on MALME-3M melanoma; 19.3 µM in the assay with MCF7 breast; 15.5 µM in the assay with MOLT-4 leukemia; 9.72 µM in the assay with OVCAR-3 ovarian. Also, the TGI worked out at 15.3 µM in the assay with RPMI-8226 leukemia, 9.83 µM with SF-268 CNS, 18 µM in the assay on SN12C renal and 8.59 µM in the assay on SR leukemia.
With `CC1=C(C(=O)Nc2cc(F)c(F)cc2F)C(c2ccc(N(C)C)cc2)C(C(=O)Nc2cc(F)c(F)cc2F)=C(C)N1`, the TGI in the assay on HOP-62 NSCLC is over 100 µM; with HT29 colon, over 91.3 µM; in the assay with MALME-3M melanoma, over 100 µM; in the assay on MCF7 breast, over 100 µM; in the assay on MOLT-4 leukemia it was over 77.2 µM; in the assay on OVCAR-3 ovarian it was 49.7 µM. For the same compound, the TGI with RPMI-8226 leukemia was over 68.6 µM; in the assay on SF-268 CNS it was over 100 µM; in the assay with SN12C renal it was over 100 µM; in the assay with SR leukemia, over 100 µM. Also, the GI50 is 16.3 µM with MCF7 breast and 18.7 µM in the assay on SR leukemia.
As for `CC(=O)OC1C(C)OC(Oc2c(-c3ccc(O)cc3)oc3cc(O)cc(O)c3c2=O)C(O)C1OC(C)=O` (configuration not stated), the GI50 is 35.9 µM with HOP-62 NSCLC; 31.4 µM in the assay with HT29 colon; 21.3 µM with MALME-3M melanoma; 28.3 µM in the assay with MCF7 breast; 26.7 µM in the assay with MOLT-4 leukemia; 20.6 µM in the assay with OVCAR-3 ovarian. For the same compound, the GI50 is 23.4 µM in the assay with RPMI-8226 leukemia, 27 µM in the assay on SF-268 CNS, 27.3 µM with SN12C renal and 25 µM in the assay on SR leukemia. Moreover, the TGI with HOP-62 NSCLC is over 100 µM; in the assay with HT29 colon, over 91.3 µM; with MALME-3M melanoma, over 75.2 µM; in the assay with MCF7 breast, over 100 µM; with MOLT-4 leukemia, over 75 µM; in the assay with OVCAR-3 ovarian, 45.3 µM. Besides, the TGI with RPMI-8226 leukemia was 70.4 µM; in the assay with SF-268 CNS, over 89.5 µM; with SN12C renal it was 97.5 µM; with SR leukemia it was 65 µM.
`COc1cccc(C2=C(c3cn(C)c4c(C)cccc34)C(=O)NC2=O)c1`: the GI50 with HOP-62 NSCLC was over 25 µM; in the assay with HT29 colon, over 19.6 µM; in the assay on MALME-3M melanoma, over 25 µM; in the assay on MCF7 breast, 16.5 µM; in the assay on MOLT-4 leukemia it was 16.3 µM; in the assay on OVCAR-3 ovarian, 16.5 µM. The GI50 in the assay with RPMI-8226 leukemia is over 25 µM; in the assay with SF-268 CNS it was over 25 µM; with SN12C renal, over 25 µM; in the assay with SR leukemia, over 19.6 µM. Besides, the TGI with HOP-62 NSCLC, in the assay with HT29 colon, in the assay on MALME-3M melanoma, in the assay with MCF7 breast, with MOLT-4 leukemia and in the assay with OVCAR-3 ovarian was over 25 µM each time. For the same compound, the TGI in the assay with RPMI-8226 leukemia, with SF-268 CNS, in the assay on SN12C renal and with SR leukemia was over 25 µM throughout.
With `COc1cc(/C=C/C(=O)c2cccc(-n3cc(-c4ccccc4)[nH]c3=O)c2)ccc1O`, the GI50 was 4.6 µM in the assay with HOP-62 NSCLC; 3.77 µM in the assay with HT29 colon; 5.25 µM in the assay on MALME-3M melanoma; 1.94 µM in the assay on MCF7 breast; 2.49 µM in the assay with MOLT-4 leukemia; 2.33 µM with OVCAR-3 ovarian. The GI50 is 1.66 µM with RPMI-8226 leukemia, 2.74 µM in the assay with SF-268 CNS, 3.02 µM in the assay with SN12C renal and 1.65 µM in the assay on SR leukemia. In addition, the TGI is 15.3 µM in the assay with HOP-62 NSCLC; over 100 µM with HT29 colon; 17.1 µM in the assay on MALME-3M melanoma; 6.65 µM with MCF7 breast; 6.28 µM in the assay on MOLT-4 leukemia; 6.06 µM in the assay with OVCAR-3 ovarian. The TGI is 4.21 µM in the assay with RPMI-8226 leukemia, 8.31 µM with SF-268 CNS, 12 µM in the assay on SN12C renal and over 100 µM with SR leukemia.
